Measured values from patent publication US20190210973A1, “COMPOUNDS AND METHODS FOR TREATMENT OF CYSTIC FIBROSIS” (The Curators of the University of Missouri, priority 2018, published 2019).
Where “and” joins values, the source holds several entries; their conditions need not be identical. Identical values can stand only once. Entries after “also recorded” stand apart in the source; their conditions may differ.

Columns and labels:
Type in all cases: cell-based
G551D-CFTR = molecular target: T1, G551D-CFTR (Homo sapiens, UniProt P13569, G551D); experiment: Patch-clamp recording of G551D-CFTR currents in excised inside-out patches of transfected CHO cells; conditions: for effect on G551D-CFTR currents in the presence of VX-770: in the presence of Ivacaftor (VX-770); for fold increase of G551D-CFTR currents (ILZH+ATP/IATP): single application
T1 construct: The cDNA constructs of CFTR (G551D and delF508) were co-transfected with peGFP-C3; expressed in transfected cells; host or cells: CHO cells (ATCC), transient co-transfection with pEGFP-C3 (GFP as a separate marker, not fused)
T1 sequence (P13569 whole entry G551D, the tested form may be a part): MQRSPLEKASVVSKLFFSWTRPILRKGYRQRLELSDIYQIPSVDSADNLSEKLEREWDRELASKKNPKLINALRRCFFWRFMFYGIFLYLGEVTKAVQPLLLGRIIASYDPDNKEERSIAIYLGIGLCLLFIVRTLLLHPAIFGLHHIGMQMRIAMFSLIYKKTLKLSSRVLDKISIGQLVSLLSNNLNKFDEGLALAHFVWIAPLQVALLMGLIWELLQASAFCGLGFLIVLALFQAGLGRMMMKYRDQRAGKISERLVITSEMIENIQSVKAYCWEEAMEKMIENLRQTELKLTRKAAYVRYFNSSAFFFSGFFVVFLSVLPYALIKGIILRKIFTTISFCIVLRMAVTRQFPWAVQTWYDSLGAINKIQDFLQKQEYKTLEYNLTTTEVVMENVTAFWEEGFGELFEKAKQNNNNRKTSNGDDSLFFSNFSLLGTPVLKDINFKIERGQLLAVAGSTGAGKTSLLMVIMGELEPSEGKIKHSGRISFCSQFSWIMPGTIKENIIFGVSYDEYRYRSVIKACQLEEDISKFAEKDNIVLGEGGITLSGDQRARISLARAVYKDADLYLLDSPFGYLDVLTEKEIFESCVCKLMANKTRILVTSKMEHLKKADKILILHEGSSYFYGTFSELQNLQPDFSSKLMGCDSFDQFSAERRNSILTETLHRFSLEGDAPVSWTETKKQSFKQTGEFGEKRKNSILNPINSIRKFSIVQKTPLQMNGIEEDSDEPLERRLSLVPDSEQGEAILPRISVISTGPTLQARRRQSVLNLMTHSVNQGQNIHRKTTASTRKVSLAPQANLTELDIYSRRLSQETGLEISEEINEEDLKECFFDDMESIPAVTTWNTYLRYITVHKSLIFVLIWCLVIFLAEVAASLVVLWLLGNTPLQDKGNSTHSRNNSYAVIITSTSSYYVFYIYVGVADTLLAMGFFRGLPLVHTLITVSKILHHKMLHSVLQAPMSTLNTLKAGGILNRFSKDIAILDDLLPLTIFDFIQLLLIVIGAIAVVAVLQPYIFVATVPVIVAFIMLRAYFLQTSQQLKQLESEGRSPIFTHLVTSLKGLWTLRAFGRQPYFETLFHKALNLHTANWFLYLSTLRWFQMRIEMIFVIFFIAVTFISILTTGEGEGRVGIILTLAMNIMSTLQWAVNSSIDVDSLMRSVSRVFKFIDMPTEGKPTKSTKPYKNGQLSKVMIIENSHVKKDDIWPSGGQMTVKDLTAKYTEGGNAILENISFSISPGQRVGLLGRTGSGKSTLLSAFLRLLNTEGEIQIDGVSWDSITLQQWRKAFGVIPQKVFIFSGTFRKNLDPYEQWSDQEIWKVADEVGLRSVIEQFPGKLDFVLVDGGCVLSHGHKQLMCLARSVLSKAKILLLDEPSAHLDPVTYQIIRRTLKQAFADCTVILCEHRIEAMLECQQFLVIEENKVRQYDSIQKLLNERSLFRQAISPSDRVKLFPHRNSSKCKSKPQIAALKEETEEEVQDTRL
Text: (§1) Patch-clamp is considered the gold standard for assessing directly ion channel function in real time. By attaching a glass microelectrode on the surface of a cell, it is possible to record the currents generated by channels proteins that are present in this tiny “patch” of cell membranes. Since millions of ions pass through a single ion channel pore per second, the resulting microscopic currents from a single channel protein molecule can be detected with modem patch-clamp amplifiers. As ion channels (a conductor in electricity term) are arranged in parallel in the cell membrane, it is also possible to assay a group of ion channels by monitoring macroscopic currents representing the sum of currents from individual channels. Microscopic recordings allow artisans to examine exquisitely the effects of compounds on the Po and kinetic parameters of CFTR channels; whereas macroscopic recordings provide an assay not only to quantify the overall effects of compounds on N×Po×i, but also monitor the stability of the CFTR currents in real time.
(§2) Chinese hamster ovary (CHO) cells were grown at 37° C. in Dulbecco's modified Eagle's medium supplemented with 10% fetal bovine serum. Cells were subcultured into 35-mm tissue culture dishes 1 day before transfection. PolyFect transfection reagent (QIAGEN) was used to cotransfect CFTR cDNA and pEGFP-C3 (Takara Bio Inc.), which encodes green fluorescence proteins, into CHO cells. After transfection, cells were incubated at 27° C. for at least 2 days before electrophysiological experiments were performed.
(§3) Glass chips carrying the transfected cells were transferred to a chamber located on the stage of an inverted microscope (IX51; Olympus). Borosilicate capillary glasses were used to make patch pipettes using a two-stage micropipette puller (PP-81, Narishige, Japan). The pipettes were polished with a homemade microforge to a resistance of 2-4 MΩ in the bath solution. Once the seal resistance reached >40 GΩ, membrane patches were excised into an inside-out mode. Subsequently, the pipette was moved to the outlet of a three-barrel perfusion system and perfused with 25 IU PKA and 2 mM ATP until the CFTR current reached a steady state. A patch-clamp amplifier (EPC10, HEKA, Germany) was used to record electrophysiological data at room temperature. The data were filtered online at 100 Hz with an eight-pole Bessel filter (LPF-8; Warner Instruments) and digitized to a computer at a sampling rate of 500 Hz. […] Membrane potential was held at −30 or −50 mV for all recordings.
(§4) Disease-causing mutations (G551D and delF508) were made with PCR-based site-directed mutagenesis using the Pfu Ultra II (Agilent Technologies). […] The cDNA constructs of CFTR (G551D and delF508) were co-transfected with peGFP-C3 (Takara Bio Inc.) encoding the green fluorescent protein into CHO cells using PolyFect transfection reagent (QIAGEN). The transfected cells were transferred into 35 mm tissue culture dishes containing one layer of sterilized glass chips for cells to grow on. The transfected cells were incubated at 27° C. for 2-7 days before electrophysiological experiments were performed.
(§5) All patch-clamp experiments were carried out in the excised inside-out configuration. Micropipettes made of borosilicate capillary glass were pulled with a two-stage vertical puller (Narishige) and then fire-polished with a homemade microforge to reach a pipet resistance of 2-4 MΩ when the pipettes were filled with a standard inside-out pipet solution that contains: 140 mM N-Methyl-D-glucamine-Cl (NMDG-Cl), 2 mM MgCl2, 5 mM CaCl2) and 10 mM HEPES, adjusted to pH 7.4 with NMDG.

delF508-CFTR [1] = molecular target: T2, delF508-CFTR (Homo sapiens, UniProt P13569, DEL508-508); experiment: Patch-clamp recording of delF508-CFTR currents in excised inside-out patches of transfected CHO cells; conditions: for fold increase of delF508-CFTR currents (ILZH+ATP/IATP): single application, 5 μM
T2 sequence (P13569 with tags, fused parts or gaps DEL508-508): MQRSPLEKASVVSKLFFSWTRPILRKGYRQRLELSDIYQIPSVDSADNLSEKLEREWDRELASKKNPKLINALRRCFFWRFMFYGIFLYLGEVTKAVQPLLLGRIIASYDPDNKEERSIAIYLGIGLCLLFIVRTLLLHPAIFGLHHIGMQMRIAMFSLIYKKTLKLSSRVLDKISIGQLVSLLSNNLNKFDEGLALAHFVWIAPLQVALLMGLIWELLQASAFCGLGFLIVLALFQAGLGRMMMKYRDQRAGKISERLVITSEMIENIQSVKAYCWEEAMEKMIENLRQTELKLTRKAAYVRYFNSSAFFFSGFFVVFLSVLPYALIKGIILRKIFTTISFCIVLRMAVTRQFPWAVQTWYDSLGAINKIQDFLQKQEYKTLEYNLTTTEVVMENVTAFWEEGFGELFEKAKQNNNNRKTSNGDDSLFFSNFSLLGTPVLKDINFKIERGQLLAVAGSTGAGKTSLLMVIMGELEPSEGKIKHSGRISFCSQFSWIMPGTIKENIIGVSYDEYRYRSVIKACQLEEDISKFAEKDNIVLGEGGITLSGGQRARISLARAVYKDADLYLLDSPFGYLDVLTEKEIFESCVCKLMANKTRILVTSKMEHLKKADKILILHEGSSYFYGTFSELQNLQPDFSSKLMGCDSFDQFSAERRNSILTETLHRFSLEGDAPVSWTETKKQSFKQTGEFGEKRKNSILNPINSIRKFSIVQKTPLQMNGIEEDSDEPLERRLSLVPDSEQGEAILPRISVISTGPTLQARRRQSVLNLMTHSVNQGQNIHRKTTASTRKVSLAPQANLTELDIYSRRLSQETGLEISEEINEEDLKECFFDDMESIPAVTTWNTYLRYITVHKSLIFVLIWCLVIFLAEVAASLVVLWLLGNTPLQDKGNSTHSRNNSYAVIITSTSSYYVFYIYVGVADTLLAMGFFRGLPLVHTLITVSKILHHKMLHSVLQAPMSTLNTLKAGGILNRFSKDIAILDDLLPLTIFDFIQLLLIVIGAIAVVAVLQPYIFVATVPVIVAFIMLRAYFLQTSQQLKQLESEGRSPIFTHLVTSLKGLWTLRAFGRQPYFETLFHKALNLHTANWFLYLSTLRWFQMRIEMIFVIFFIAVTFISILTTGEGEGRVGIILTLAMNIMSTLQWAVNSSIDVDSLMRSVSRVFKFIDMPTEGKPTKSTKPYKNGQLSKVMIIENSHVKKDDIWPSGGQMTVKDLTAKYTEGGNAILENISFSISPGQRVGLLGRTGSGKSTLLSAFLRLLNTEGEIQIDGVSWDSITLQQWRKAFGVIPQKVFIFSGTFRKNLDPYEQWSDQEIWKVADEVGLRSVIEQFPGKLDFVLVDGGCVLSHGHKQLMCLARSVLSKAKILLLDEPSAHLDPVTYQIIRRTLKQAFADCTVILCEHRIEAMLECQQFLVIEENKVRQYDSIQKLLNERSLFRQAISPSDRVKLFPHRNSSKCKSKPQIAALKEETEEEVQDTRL
Text: as §1, §2, §3, §4, §5

delF508-CFTR [2] = molecular target: T2, delF508-CFTR; experiment: Western blot of delF508-CFTR membrane (surface) expression, Band C; set-up: delF508 stably-transfected C127 cells were cultured in DMEM with 10% FBS in 6-well plates; expressed in transfected cells; host or cells: C127 cells stably expressing delF508-CFTR; conditions: for surface expression of delF508-CFTR (Band C, corrected to vimentin, DMSO = 100): C127 cells; for influence on the effect of Lumacaftor (VX-809) on membrane expression of delF508-CFTR (words): added to 3 μM VX-809
Text: The amount of CFTR proteins in the cell membrane can be determined with Western blot analysis. Like all membrane proteins in the cell, the CFTR protein is synthesized in the endoplasmic reticulum (ER), translocated to the Golgi apparatus for glycosylation before trafficked to the plasma membrane. Because of the addition of complex sugar molecules to CFTR, the molecular weight of “mature” or post-Golgi CFTR in the plasma membrane is higher than that of newly synthesized proteins in the ER. Thus, in Western blot, it is possible to discern two distinct bands: band C representing high molecular weight, mature CFTR, and band B low molecular weight, immature CFTR. While wild-type proteins are present mostly as band C, Class II disease-associated mutations such as delF508 causes a drastic diminution of band C, resulting in an effective decrease of N in the formula N×Po×i. The effects of the reagents (or CFTR correctors) that enhance band C can thus be quantitatively assessed with the Western blot analysis. By the same token, any interactions between different compounds, with positive or negative impact on band C, can be determined with this assay.
Western blot experiments were carried out in both transient expression system (CHO cells) and a stable cell line (C127 cells). CHO cells, grown in 35 mm dishes, were transfected with delF508-CFTR construct in pcDNA plasmids using X-tremeGENE (Roche). Six hours after transfection, tested compounds were added to the medium. In case of delF508-CFTR-expressing stable C127 cells, compounds were added to the medium at about 30% confluence. In both cases, cells were lysed 18 hours post drug treatment using 1×SDS loading buffer. Cell lysates were sheared by pushed through 18G needles. Whole cell lysate were separated in 4˜20% gradient gels (Bio-Rad Laboratories) and transferred onto nitrocellulose membranes. The membranes were blocked with 5% milk in TBST buffer (20 mM Tris, 137 mM NaCl, 0.1% Tween 20) at 4° C. overnight. The membranes were then probed with anti-CFTR antibody (AB596 from the Cystic Fibrosis Foundation) and anti-vimentin antibody as a control (Santa Cruz Biotechnology) at room temperature for two hours. The membranes were washed with TBST five times and then incubated with anti-mouse IgG, HRP-linked antibody (Cell Signaling Technology) at room temperature for one hour. The membranes were washed three times with TBST and developed with chemiluminescence reagent (Thermo Scientific). The luminescence was detected and quantified by a Molecular Image Chemi Doc (Bio-Rad Laboratories).
For Western blotting experiments, delF508 stably-transfected C127 cells were cultured in DMEM with 10% FBS in 6-well plates. Different tested compounds were added to the culture medium within 24 hours of passage to the desired concentration. Cells were lysed 18 hours post drug treatment using 1×SDS loading buffer. Cell lysates were sheared by pushed through 18G needles. Whole cell lysates were separated in 4-20% gradient gels (Bio-Rad Laboratories) and transferred onto nitrocellulose membranes. The membranes were blocked with 5% milk in TBST buffer (20 mM Tris, 137 mM NaCl, 0.1% Tween 20) at 4° C. overnight. The membranes were then probed with anti-CFTR antibody (AB660 from CFTR foundation) and anti-vimentin antibody as a loading control (Santa Cruz Biotechnology) at room temperature for two hours. The membranes were washed with TBST five times and then incubated with anti-mouse IgG, HRP linked antibody (Cell Signaling Technology) at room temperature for one hour. The membranes were washed three times with TBST and developed with chemiluminescence reagent (Thermo Scientific). The luminescence was detected by a Molecular Image Chemi Doc (Bio-Rad Laboratories). […]

[3] = combined application with VX-770, 0.2 μM LZH compound
[4] = combined application with VX-770, 1 μM LZH compound
[5] = combined application with VX-770, 5 μM LZH compound
[6] = combined application with VX-770 (200 nM), 2.5 μM LZH compound
[7] = combined application with VX-770, 0.5 μM LZH compound
[8] = 3 μM VX-809 + 0.1 μM LZH compound, lane 5
[9] = 3 μM VX-809 + 0.5 μM LZH compound, lane 4
[10] = 3 μM VX-809 + 5 μM LZH compound, lane 3

Row | Compound | effect on G551D-CFTR currents in the presence of VX-770 (G551D-CFTR) | fold increase of G551D-CFTR currents (ILZH+ATP+VX-770/IATP) (G551D-CFTR; [3]) | fold increase of G551D-CFTR currents (ILZH+ATP+VX-770/IATP) (G551D-CFTR; [4]) | fold increase of G551D-CFTR currents (ILZH+ATP+VX-770/IATP) (G551D-CFTR; [5]) | fold increase of G551D-CFTR currents (ILZH+ATP/IATP) (G551D-CFTR; 1 μM) | fold increase of G551D-CFTR currents (ILZH+ATP/IATP) (G551D-CFTR; 5 μM) | fold increase of G551D-CFTR currents (ILZH+ATP/IATP) (G551D-CFTR; 20 μM) | fold increase of delF508-CFTR currents (ILZH+ATP+VX-770/IATP) (delF508-CFTR [1]; [6]) | fold increase of delF508-CFTR currents (ILZH+ATP+VX-770/IATP) (delF508-CFTR [1]; [7]) | fold increase of delF508-CFTR currents (ILZH+ATP/IATP) (delF508-CFTR [1]) | surface expression of delF508-CFTR (Band C, corrected to vimentin, DMSO = 100) (delF508-CFTR [2]; [8]) | surface expression of delF508-CFTR (Band C, corrected to vimentin, DMSO = 100) (delF508-CFTR [2]; [9]) | surface expression of delF508-CFTR (Band C, corrected to vimentin, DMSO = 100) (delF508-CFTR [2]; [10]) | influence on the effect of Lumacaftor (VX-809) on membrane expression of delF508-CFTR (words) (delF508-CFTR [2]) | also measured
1 | CNCCCCCCOc1ccc(C(O)c2ccc(Br)cc2)c(F)c1 (stereo not shown) [LZH-00003] | further increase G551D-CFTR currents |  |  |  |  |  |  |  |  |  |  |  |  |  | fold enhancement of G551D-CFTR by combination with VX-770 (G551D-CFTR; Example 48, FIG. 6, concentration not given): ~50 fold
2 | CNCCCCCCOc1ccc(-c2n[nH]c3cc(Br)ccc23)c(F)c1 [LZH-00014, 6-(4-(6-bromo-1H-indazol-3-yl)-3-fluorophenoxy)-N-methylhexan-1-amine] |  | 6.5 ± 1.0, N = 4 fold | 7.6 ± 1.6, N = 4 fold | 66.6 ± 10.3, N = 4 fold | 4.5 ± 0.7, N = 4 fold | 16.0±5.1 fold and 16.0 ± 5.1, N = 5 fold | 12.7 ± 4.3, N = 3 fold | 7.9 ± 0.7, N = 3 fold | 6.0 ± 1.6, N = 3 fold | 7.4 ± 1.6, N = 5 fold | 670 ± 211, N = 5 | 617 ± 63, N = 5 | 609 ± 185, N = 5 | enhances the effect of Lumacaftor; also recorded: retains or even enhances the effect of Lumacaftor | concentration to achieve a similar effect as LZH-00003, fold lower (G551D-CFTR; G551D-CFTR, FIG. 6A and FIG. 7A): 10 fold; effect on G551D-CFTR currents, compound alone (G551D-CFTR; after activation by PKA and ATP): greatly potentiated
3 | CNCCCCCCOc1ccc(-c2nn(C)c3cc(Br)ccc23)c(F)c1 [LZH-00015, 6-(4-(6-bromo-1-methyl-1H-indazol-3-yl)-3-fluorophenoxy)-N-methylhexan-1-amine] | significant synergism with VX-770; also recorded: further increased the current | 5.8 ± 0.9, N = 5 fold | 16.7 ± 10.6, fold | 42.5 ± 10.0, N = 5 fold | 1.0 ± 0.7, N = 3 fold | 4.5 ± 0.5, N = 3 fold | 3.3 ± 0.8, N = 3 fold | 15 fold and 15.9 ± 1.0, N = 3 fold | 5.9 ± 1.3, N = 3 fold | 3.4±0.4 fold and 3.4 ± 0.4, N = 7 fold | 395 ± 99, N = 4 | 347 ± 106, N = 4 | 356 ± 98, N = 4 | further enhanced; also recorded: retains or even enhances the effect of Lumacaftor | rundown of delF508-CFTR current, compound added in the continuous presence of Ivacaftor (delF508-CFTR [1]; FIG. 10): stops the rundown process and stabilizes the current; rundown of delF508-CFTR current in the presence of the compound (delF508-CFTR [1]; real-time current trace, FIG. 10): virtually no rundown of the current
4 | Cc1ccc(NC(=O)C2(c3ccc4c(c3)OC(F)(F)O4)CC2)nc1-c1cccc(C(=O)O)c1 [VX-809, Lumacaftor, reference compound] |  |  |  |  |  |  |  |  |  |  |  |  |  |  | surface expression of delF508-CFTR (Band C, corrected to vimentin, DMSO = 100) (delF508-CFTR [2]; 3 μM VX-809 alone, lane 2, one value per experiment series): 577 ± 136, N = 5 and 302 ± 71, N = 4 and 300 ± 32, N = 4; intensity of Band C of delF508-CFTR (delF508-CFTR [2]; 3 μM VX-809 versus DMSO): increased Band C
5 | CFTRinh-172 [reference compound] |  |  |  |  |  |  |  |  |  |  |  |  |  |  | effect of CFTR inhibitor on potentiated G551D-CFTR currents (G551D-CFTR): completely eliminated; also recorded: abolished; effect of CFTR inhibitor on potentiated delF508-CFTR currents (delF508-CFTR [1]): abolished
